Source: publication PMC9715518, “Human and rat microsomal metabolites of N-tert-butoxycarbonylmethamphetamine and its urinary metabolites in rat” (Forensic Toxicology, 2021)
Where “and” joins values, the source holds several entries; their conditions need not be identical. Equal entries are not always repeated.

Legend:
[1] = Microsomal metabolism test, human liver microsomes
[2] = Microsomal metabolism test, rat liver microsomes
[3] = pH 1.5, 37 °C; cited from earlier work
[4] = Rat administration test, urinary excretion
[5] = rat no. 1, urine 0–4 h, BocMA 20 mg/kg i.p.
[6] = rat no. 1, urine 4–8 h, BocMA 20 mg/kg i.p.
[7] = rat no. 1, urine 8–24 h, BocMA 20 mg/kg i.p.
[8] = rat no. 1, urine 24–48 h, BocMA 20 mg/kg i.p.
[9] = rat no. 2, urine 0–4 h, BocMA 20 mg/kg i.p.
[10] = rat no. 2, urine 4–8 h, BocMA 20 mg/kg i.p.
[11] = rat no. 2, urine 8–24 h, BocMA 20 mg/kg i.p.
[12] = rat no. 3, urine 0–4 h, BocMA 20 mg/kg i.p.
[13] = rat no. 3, urine 4–8 h, BocMA 20 mg/kg i.p.
[14] = rat no. 3, urine 8–24 h, BocMA 20 mg/kg i.p.
[15] = rat no. 3, urine 24–48 h, BocMA 20 mg/kg i.p.
[16] = rat no. 3, urine 48–72 h, BocMA 20 mg/kg i.p.

Compound: CC(Cc1ccccc1)N(C)C(=O)OC(C)(C)C (centres unmarked) [BocMA, N-tert-butoxycarbonylmethamphetamine]
- BocMA degraded ([1]; HLM, first 8 min): 80%
- ER (extraction ratio) ([1]; HLM, mean ± SD, n = 3): 0.90 and 0.90 ± 0.01
- CLint (estimated intrinsic clearance) ([1]; HLM, scaled to whole liver, mean ± SD, n = 3): 200 mL/min/kg body wt. and 200 ± 20 mL/min/kg body wt.
- CLH (estimated hepatic clearance) ([1]; HLM, well-stirred model without protein binding, mean ± SD, n = 3): 19 ± 1 mL/min/kg body wt.
- half-life at 1 μg/mL ([1]; human, microsomes, pH 7.4): 3.2 ± 0.3 min
- microsomal CLint at 1 μg/mL ([1]; human, microsomes, pH 7.4): 220 ± 20 µL/min/mg
- Incubation time at which peak intensity was highest ([2]; RLM test): 0 min
- BocMA degraded ([2]; RLM, first 3 min): 83%
- ER (extraction ratio) ([2]; RLM, mean ± SD, n = 3): 0.92 and 0.92 ± 0.01
- CLint (estimated intrinsic clearance) ([2]; RLM, scaled to whole liver, mean ± SD, n = 3): 640 ± 70 mL/min/kg body wt.
- CLH (estimated hepatic clearance) ([2]; RLM, well-stirred model without protein binding, mean ± SD, n = 3): 51 ± 1 mL/min/kg body wt.
- half-life at 1 μg/mL ([2]; rat, microsomes, pH 7.4): 2 ± 0.2 min
- microsomal CLint at 1 μg/mL ([2]; rat, microsomes, pH 7.4): 360 ± 40 µL/min/mg
- Half-life in model gastric juice solution [3]: 50 min
- BocMA absolute amount in urine ([4]; average of 3 rats, urine 0–72 h total, BocMA 20 mg/kg i.p.): 16000 ng
- BocMA absolute amount in urine [4, 5]: 87 ng
- BocMA concentration in urine [4, 5]: 58 ng/mL
- BocMA absolute amount in urine ([4]; rat no. 1, urine 0–72 h total, BocMA 20 mg/kg i.p.): 240 ng
- BocMA absolute amount in urine [4, 6]: 8.9 ng
- BocMA concentration in urine [4, 6]: 8.9 ng/mL
- BocMA absolute amount in urine [4, 7]: 59 ng
- BocMA concentration in urine [4, 7]: 7.4 ng/mL
- BocMA absolute amount in urine [4, 8]: 84 ng
- BocMA concentration in urine [4, 8]: 12 ng/mL
- BocMA absolute amount in urine [4, 9]: 190 ng
- BocMA concentration in urine [4, 9]: 95 ng/mL
- BocMA absolute amount in urine ([4]; rat no. 2, urine 0–72 h total, BocMA 20 mg/kg i.p.): 310 ng
- BocMA absolute amount in urine [4, 10]: 78 ng
- BocMA concentration in urine [4, 10]: 39 ng/mL
- BocMA absolute amount in urine [4, 11]: 44 ng
- BocMA concentration in urine [4, 11]: 2.9 ng/mL
- BocMA absolute amount in urine [4, 12]: 2700 ng
- BocMA concentration in urine [4, 12]: 5400 ng/mL
- BocMA absolute amount in urine ([4]; rat no. 3, urine 0–72 h total, BocMA 20 mg/kg i.p.): 15000 ng
- BocMA absolute amount in urine [4, 13]: 4400 ng
- BocMA concentration in urine [4, 13]: 2200 ng/mL
- BocMA absolute amount in urine [4, 14]: 6800 ng
- BocMA concentration in urine [4, 14]: 680 ng/mL
- BocMA absolute amount in urine [4, 15]: 660 ng
- BocMA concentration in urine [4, 15]: 83 ng/mL
- BocMA absolute amount in urine [4, 16]: 810 ng
- BocMA concentration in urine [4, 16]: 90 ng/mL
- Excreted BocMA as the unchanged form, share of the administered quantity ([4]; rat urine over 72 h, average, n = 3): 0.13%
- Detection in rat urine (LC–QToF–MS) ([4]; urine 0–72 h, BocMA 20 mg/kg i.p., n = 3): detected in urine from all rats
